Primed or numbered codes have the meaning given here. Where no end group is shown, it is not given here. [ ]: non-standard residue; d: D form. The star is where a group is joined. FITC′ = fluorescein isothiocyanate label at the N-terminus; Myristoyl = CCCCCCCCCCCCCC(=O)*
Test system: Mut-p53
Experiment: Total activity score over combined assays (Table 8)
Design: scale not given here
Settings: for Activity Score: Table 10 summary of activity of the peptides tested; for AS (Activity Score): total score of Table 7; for Conformation, activity score / PCR, activity score: Table 8; for Conformation, activity score: the 14 score columns c4-c17 stand under the heads Conformation, DNA binding, Viability, PCR; for PCR, activity score: head span not shown
Description: Several alternative and complementary methods to screen lead peptide candidates for conformational and functional effects on Mut-p53 were employed. For increased penetration of peptide across cell membranes each peptide contains 3-6 Arginine residues either as part of its sequence or added either at its N-terminus or its C-terminus. […] In-vitro based assays for evaluation were first performed, such as ELISA for assessment of p53 conformation and sequence-specific DNA binding of p53.

Substance	Activity Score	AS (Activity Score)	Conformation, activity score	PCR, activity score
pCAP153 (YWSAPQPATRRRRRRRRRRR)	6	6		
pCAP305 (IREFDPRRIR)	4			
pCAP309 (HPHVILPRIRIRIR)	0			
pCAP81 (VRCIFRGIWVRL)	2	2		
pCAP252 (RRVILRSYDGGHSTPHPD)	0			
pCAP321 (RNIIIRDFIHFSHIDR)	0			
pCAP141 (SWQALALYAAGWRRRRRR)	29	29		
pCAP169 (SFILI)	0	0		
pCAP49 (TRILCIVMM)	8	8		
pCAP319 (SHDFYPHWMRERIR)	3			
pCAP219 (SYRHYSDHWEDRRR)	1			
pCAP216 (Myristoyl-HFNHYTFESTCRRRRC; cysteine pairing not given here)	2			
pCAP139 (MHPPDWYHHTPKRRRRRR)	12	12		
pCAP167 (FILIR)	5	5		
pCAP23 (IRILMFLIGCGR)	22	22		
pCAP281 (Myristoyl-RDFILFIRRLGRR)	3			
pCAP220 (STTHPHPGTSAPEPATRRR)	6			
pCAP74 (IRGRIIRRKKRRQRRRRGDR)	6	6		
pCAP238 (TSPHPSLPRHIYPRR)	6			
pCAP283 (RRPADQISYLHPPER)	0			
pCAP295 (LDLYHPRERR)	3			
pCAP22 (SLLIGFGIIRSR)	5	5		
pCAP222 (RYEENNGVNPPVQVFESRTR)	4			

Substance	Activity Score	AS (Activity Score)	Conformation, activity score	PCR, activity score
pCAP64 (APSIFTPHAWRQ)	2	2		
pCAP176 (HPWTH)	0	0		
pCAP31 (PPYSQFLQWYLS)	0	0		
pCAP270 (SPHPPY)	0			
pCAP202 (DEDAKFRIRILMRR)	8		3	
pCAP296 (RPADRIRR)	0			
pCAP310 (RLRCLLLLIGRVGRR)	4			
pCAP39 (DSLHSTY)	2	2		
pCAP16 (LPNPPERHH)	24	24		
pCAP60 (SFILFIRRGRLG)	40	40		
pCAP35 (GAMHLPWHMGTL)	28	28		
pCAP159 ([dR][dR][dR][dR][dR][dR][dR][dR]G[dL][dR]G[dR][dR][dI][dF][dL][dI][dF][dS])	53	53		
pCAP326 (Myristoyl-RRHNAHHSTPHPDDR)	53		3	4
pCAP162 (SILT)	2	2		
pCAP164 (PLTLI)	0	0		
pCAP128 (CILRLWW)	19	19		
pCAP172 (EFHS)	0	0		
pCAP230 (RKRGKSYAFFVPPSESKERW)	63		3	6
pCAP203 (RRRHDSCHNQLQNYDHSTE)	42			4
pCAP109 (GPIKHHLQHH)	4	4		
pCAP47 (TLYLPHWHRH)	14	14		
pCAP92 (FPHLVSSLTT)	7	7		
pCAP206 (RRRSHSQENVDQDTDE)	19			6

Substance	Activity Score	AS (Activity Score)	Conformation, activity score	PCR, activity score
pCAP65 (THFSHHLKHRRRRRRRRRR)	17	17		
pCAP306 (Myristoyl-RLIRIRILM)	6			
pCAP269 (DEPLPPPERRR)	0			
pCAP280 (Myristoyl-RYRRLILEIWRR)	6			
pCAP140 (TDSHSHHRRRRRRRRRRR)	6	6		
pCAP304 (Myristoyl-RRIRILMFLIGCGRV)	0			
pCAP123 (GLCRIIL)	3	3		
pCAP5 (LEVIYMI)	2	2		
pCAP59 (FLIRRSG)	9	9		
pCAP24 (LRCLLLLIGRVG)	23	23		
pCAP267 (KRGGRKRRGGGHRLSYFIRR)	28		3	2
pCAP38 (WTLSNYL)	2	2		
pCAP34 (SILTLSRIVLGWW)	14	14		
pCAP33 (SILTLRLRRLRR)	16	16		
pCAP27 (VHEVTHHWL)	5	5		
pCAP231 (HRTQSTLILFIRRGRET)	9			
pCAP209 (HTPHPPVARTSPLQTPRR)	0			
pCAP58 (SILPLFLIRRSG)	5	5		
pCAP86 (FGSHHEL)	0	0		
pCAP108 (IIRGNFLIGGRL)	17	17		
pCAP105 (SRIVLGW)	5	5		
pCAP46 (ASWQALALYAAGW)	34	34		
pCAP72 (SCRCRLRRRRRRRRRR)	5	5		

Substance	Activity Score	AS (Activity Score)	Conformation, activity score	PCR, activity score
pCAP104 (LLRLGLI)	21	21		
pCAP271 (SPHPPYSPHPPYSPHPPYP)	0			
pCAP154 (LRCLLLLIGRVGRKKRRQRR)	57	57		
pCAP274 (LRDPHPPERRIR)	0			
pCAP80 (HLHKHHYKDSRM)	9	9		
pCAP242 (Myristoyl-RRLIVRILKLPNPPER)	67		4	6
pCAP160 ({FITC′}-SFILFIRRGRLGRRRRRRRRR)	24	24		
pCAP279 (RDTIERPEIRR)	6			
pCAP135 (HTDSHPHHHHPHRRRRR)	10	10		
pCAP95 (HQIHRNHTY)	8	8		
pCAP175 (DSPR)	0	0		
pCAP124 (VMVLFRILRGSM)	2	2		
pCAP71 (WTLSNYLGGRKKRRQRRRR)	2	2		
pCAP251 (RLRRVILRSYHE)	3			
pCAP287 (RDFERTIVDI)	8			
pCAP212 (Myristoyl-REEETILIIRRR)	3			
pCAP73 (SCRCRLRGDRGDR)	0	0		
pCAP288 (THDFDRLLRIRRR)	6			
pCAP324 (SHDFPHREPRPERR)	0			
pCAP272 (RRPHNLHHD)	0			
pCAP63 (HNHHHSQHTPQH)	9	9		
pCAP68 (YRRLLIGMMWRRRRRRRRRRR)	39	39		
pCAP268 (TPSYGHTPSHHRRR)	12		3	

Substance	Activity Score	AS (Activity Score)	Conformation, activity score	PCR, activity score
pCAP278 (RRYDTVIDDIEYRR)	6			
pCAP286 (HDFHDYLERR)	4			
pCAP26 (DEFHSFYTARQTG)	0	0		
pCAP293 (RRIRIDPQHD)	2			
pCAP138 (YPTQGHLRRRRRRRRRRRR)	11	11		
pCAP241 (LIGLSTSPRPRIIR)	0			
pCAP211 (PDSEPPRMELRRR)	0			
pCAP115 (HPHNHTVHNVVY)	3	3		
pCAP253 (TGKTFVKRHLTEFEKKYR)	0			
pCAP313 (Myristoyl-RRREILHPEFRILYE)	8			
pCAP97 (WNHHHSTPHPAH)	47	47		
pCAP226 (DDSDNRIIRYRR)	6			
pCAP163 (LTLS)	4	4		
pCAP149 (FPGHTIHRRRRRRRRRRR)	13	13		
pCAP254 (NHFDYDTIELDTAGEYSRRR)	0			
pCAP240 (TEQHHYIPHRRR)	3			
pCAP56 (ATPFHQT)	5	5		
pCAP17 (LHSKTLVL)	23	23		
pCAP148 (WNHHHSTPHPRRRRRRRRRR)	43	43		
pCAP263 (YDDEHNHHPHHSTHRRR)	0			
pCAP207 (RRSRSNEDVEDKTEDE)	0			

— US11028127B2, “Peptides capable of reactivating p53 mutants” (Yeda Research and Development Co. Ltd., priority 2013, dated 2021)
